76 compounds from patent US11247985B2, “Phenyl indole allosteric inhibitors of P97 ATPase” (University of Pittsburgh—Of the Commonwealth System of …, priority 2015, dated 2022) can be followed below.

For one assay, the target named is p97 ATPase WT (Homo sapiens (Human), UniProt P55072). The assay is described as follows: p97 ADP-Glo assay. The assay is classed as biochemical. As to conditions: Table 3; read-out: ADPGlo IC50. From the text: ADP-Glo™ (Promega Corp.) is a bioluminescent, homogeneous assay that measures ADP formed from a biochemical reactions. Because of its high sensitivity, the assay is suitable for monitoring enzyme activities at very early substrate conversions requiring very low amount of enzymes.
Chain of p97 ATPase WT (P55072 whole entry): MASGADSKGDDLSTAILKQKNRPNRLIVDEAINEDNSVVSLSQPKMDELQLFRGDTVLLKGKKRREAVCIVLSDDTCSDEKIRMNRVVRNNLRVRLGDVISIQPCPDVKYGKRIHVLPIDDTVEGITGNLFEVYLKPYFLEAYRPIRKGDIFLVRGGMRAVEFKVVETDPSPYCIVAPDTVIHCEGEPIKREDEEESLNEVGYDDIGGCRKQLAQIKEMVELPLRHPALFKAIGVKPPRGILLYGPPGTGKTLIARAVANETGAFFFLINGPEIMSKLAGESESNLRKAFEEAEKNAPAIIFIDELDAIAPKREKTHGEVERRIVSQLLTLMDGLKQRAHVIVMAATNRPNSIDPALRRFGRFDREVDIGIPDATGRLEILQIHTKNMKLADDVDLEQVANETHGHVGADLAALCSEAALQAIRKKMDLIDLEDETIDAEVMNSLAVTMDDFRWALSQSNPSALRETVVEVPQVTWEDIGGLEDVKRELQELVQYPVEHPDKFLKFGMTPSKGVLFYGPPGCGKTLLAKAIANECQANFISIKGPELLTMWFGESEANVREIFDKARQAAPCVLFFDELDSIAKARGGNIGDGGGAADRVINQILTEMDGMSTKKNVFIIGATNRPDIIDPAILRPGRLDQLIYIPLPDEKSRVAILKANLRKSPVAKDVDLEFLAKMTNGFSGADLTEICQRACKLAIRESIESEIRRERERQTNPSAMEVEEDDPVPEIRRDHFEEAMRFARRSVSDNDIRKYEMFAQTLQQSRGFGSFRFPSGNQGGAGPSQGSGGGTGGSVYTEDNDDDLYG
The ADP-Glo assay can be conducted as described in Chou, T.-F.; Bulfer, S. L.; Weihl, C.
On to `COC(=O)c1ccc2[nH]c(-c3cccc(N4CCC(NC5CCN(C(C)C)CC5)CC4)c3)cc2c1`, for which the IC50 came out at 510 nM.

As to `COc1ccc2[nH]c(-c3cccc(N4CCC(NCCN5CCN(C(C)C)CC5)CC4)c3)cc2c1`, the IC50 is 660 nM. Same read-out and setting: as for `CN1CCC(NC2CCN(c3cccc(-c4cc5ccccc5[nH]4)c3)CC2)CC1`, the figure is 380 nM.

With `CCN(CC)C(=O)CCNC1CCN(c2cccc(-c3cc4cc(F)ccc4[nH]3)c2)CC1`, the IC50 amounted to 670 nM. Same read-out and setting: as for `CN1CCN(CCNC2CCN(c3cccc(-c4cc5ccccc5[nH]4)c3)CC2)CC1`, the figure is 380 nM. On the same count and under the same terms, as for `[N-]=[N+]=Nc1cccc(CNC2CCN(c3cccc(-c4cc5cc(F)ccc5[nH]4)c3)CC2)c1`, the figure is 680 nM; as for `CCN1CCN(CCNC2CCN(c3cccc(-c4cc5ccccc5[nH]4)c3)CC2)CC1`, 190 nM. The same measure, in the same setting: as for `O=S1(=O)CCN(CCNC2CCN(c3cccc(-c4cc5ccccc5[nH]4)c3)CC2)CC1`, the figure is 700 nM. For `CN1CCN(C(C)(C)CNC2CCN(c3cccc(-c4cc5ccccc5[nH]4)c3)CC2)CC1`, the IC50 came out at 450 nM.

For `CN(C)CCNC1CCN(c2cccc(-c3cc4cc(F)ccc4[nH]3)c2)CC1`, the IC50 was found to be 710 nM. Still for that read-out and setting: under `c1ccc(CN2CCN(CCNC3CCN(c4cccc(-c5cc6ccccc6[nH]5)c4)CC3)CC2)cc1` stands 300 nM. Turning to `NC(=O)CCNC1CCN(c2cccc(-c3cc4cc(F)ccc4[nH]3)c2)CC1`, the IC50 came to 760 nM.

Take `c1cc(-c2cc3ccccc3[nH]2)cc(N2CCC(NCCCN3CCOCC3)CC2)c1`: the IC50 was determined as 800 nM. In the case of `CC1CCN(CCNC2CCN(c3cccc(-c4cc5ccccc5[nH]4)c3)CC2)CC1`, the IC50 was determined as 800 nM.

In the case of `Cn1ncnc1CCNC1CCN(c2cccc(-c3cc4ccccc4[nH]3)c2)CC1`, the IC50 came to 810 nM. Regarding `O=C1CN(CCNC2CCN(c3cccc(-c4cc5ccccc5[nH]4)c3)CC2)CCN1`, the IC50 stood at 850 nM. On the same count and under the same terms, as for `COC(=O)CCNC1CCN(c2cccc(-c3cc4ccccc4[nH]3)c2)CC1`, the figure is 1000 nM; as for `Cn1ncnc1CCNC1CCN(c2cccc(-c3cc4cc(C#N)ccc4[nH]3)c2)CC1`, 890 nM. Same read-out and setting: as for `c1cncc(CNC2CCN(c3cccc(-c4cc5ccccc5[nH]4)c3)CC2)c1`, the figure is 740 nM; as for `c1ccc(CNC2CCN(c3cccc(-c4cc5ccccc5[nH]4)c3)CC2)cc1`, 960 nM; as for `c1ccc(CCNC2CCN(c3cccc(-c4cc5ccccc5[nH]4)c3)CC2)nc1`, 720 nM. Same read-out and setting: under `CC(C)(C)OC(=O)N1CCCN(CCNC2CCN(c3cccc(-c4cc5ccccc5[nH]4)c3)CC2)CC1` stands 1100 nM; under `CN(C)CCNC1CCN(c2cccc(-c3cc4ccccc4[nH]3)c2)CC1`, 570 nM.

As for `Cc1ccc(CNC2CCN(c3cccc(-c4cc5ccccc5[nH]4)c3)CC2)o1`, the IC50 turned out to be 890 nM. Same read-out and setting: under `FC(F)(F)CN1CCN(CCNC2CCN(c3cccc(-c4cc5ccccc5[nH]4)c3)CC2)CC1` stands 1300 nM; under `c1cc(-c2cc3ccccc3[nH]2)cc(N2CCC(NCCN3CCCC3)CC2)c1`, 880 nM.

With `CC(C)N1CCN(CCNC2CCN(c3cccc(-c4cc5c(F)cccc5[nH]4)c3)CC2)CC1`, the IC50 is 1300 nM.

As for `c1cc(-c2cc3ccccc3[nH]2)cc(N2CCC(NCCN3CCOCC3)CC2)c1`, the IC50 is 910 nM. On the same count and under the same terms, under `Cn1ncnc1CCNC1CCN(c2cccc(-c3cc4cc(F)ccc4[nH]3)c2)CC1` stands 1300 nM; under `c1ccc(CNC2CCN(c3cccc(-c4cc5ccccc5[nH]4)c3)CC2)nc1`, 1000 nM; under `COC(=O)CCNC1CCN(c2cccc(-c3cc4cc(F)ccc4[nH]3)c2)CC1`, 1300 nM. `CCCCNC1CCN(c2cccc(-c3cc4ccccc4[nH]3)c2)CC1`: the IC50 came to 1700 nM.

`CN1[C@@H]2CCC[C@H]1C[C@@H](NC1CCN(c3cccc(-c4cc5ccccc5[nH]4)c3)CC1)C2`: the IC50 amounted to 1300 nM. The same measure, in the same setting: as for `c1cc(-c2cc3ccccc3[nH]2)cc(N2CCC(NCc3ccncc3)CC2)c1`, the figure is 1400 nM; as for `O=C(CCNC1CCN(c2cccc(-c3cc4cc(F)ccc4[nH]3)c2)CC1)N1CCCCC1`, 1400 nM. Still for that read-out and setting: under `c1ccc(CCNC2CCN(c3cccc(-c4cc5ccccc5[nH]4)c3)CC2)cc1` stands 2700 nM; under `CC(C)N1CCN(CCNC2CCN(c3cccc(NC(=O)OCc4ccccc4)c3)CC2)CC1`, 1700 nM. Same read-out and setting: under `CN1CCN(C2CCN(c3cccc(-c4cc5ccccc5[nH]4)c3)CC2)CC1` stands 13000 nM; under `CC(C)N1CCN(CCNC2CCN(C(=O)c3cccc(-c4cc5ccccc5[nH]4)c3)CC2)CC1`, 13600 nM.

Take `CN1CCN(C2(CNC3CCN(c4cccc(-c5cc6ccccc6[nH]5)c4)CC3)CCCCC2)CC1`: the IC50 is 260 nM. Same read-out and setting: as for `Cc1c(-c2cc3ccccc3[nH]2)cccc1N1CCC(NCCN2CCN(C(C)C)CC2)CC1`, the figure is 14000 nM; as for `N#Cc1ccc2[nH]c(-c3cccc(N4CCC(NCc5cccnc5)CC4)c3)cc2c1`, 290 nM. Same read-out and setting: under `CC(C)N1CCC(NC2CCN(c3cccc(-c4cc5cc(S(=O)(=O)NC(C)(C)C)ccc5[nH]4)c3)CC2)CC1` stands 14000 nM. Same read-out and setting: under `CN1CCN(C(=O)CCNC2CCN(c3cccc(-c4cc5ccccc5[nH]4)c3)CC2)CC1` stands 290 nM. As to `Cc1c(-c2cc3ccccc3[nH]2)cccc1N1CCC(NC2CCN(C)CC2)CC1`, the IC50 came to 15000 nM. As for `c1cc(-c2cc3ccccc3[nH]2)cc(N2CCC(NCCN3CCNCC3)CC2)c1`, the IC50 was found to be 310 nM. Take `CC(C)N1CCC(NC2CCN(c3nnc(-c4cc5cc(F)ccc5[nH]4)o3)CC2)CC1`: the IC50 was found to be 15800 nM. Regarding `c1cc(-c2cc3ccccc3[nH]2)cc(N2CCC(NCCN3CCCNCC3)CC2)c1`, the IC50 turned out to be 320 nM. Same read-out and setting: under `CN1CCN(C2(CNC3CCN(c4cccc(-c5cc6cc(S(C)(=O)=O)ccc6[nH]5)c4)CC3)CCC2)CC1` stands 16000 nM; under `CN1CCN(C(=O)CCNC2CCN(c3cccc(-c4cc5cc(C#N)ccc5[nH]4)c3)CC2)CC1`, 320 nM; under `CON(C)C(=O)c1ccc2[nH]c(-c3cccc(N4CCC(NCCN5CCN(C(C)C)CC5)CC4)c3)cc2c1`, 16000 nM. Same read-out and setting: as for `Cc1ccc(N2CCC(NCC3(N4CCN(C(C)C)CC4)CCC3)CC2)cc1-c1cc2cc(F)ccc2[nH]1`, the figure is 320 nM; as for `FC(F)(F)C(c1ccccc1)N1CCN(CCNC2CCN(c3cccc(-c4cc5ccccc5[nH]4)c3)CC2)CC1` (centres unmarked), 17000 nM; as for `CC(C)N1CCN(CCNC2CCN(c3cccc(-c4cc5cc(F)c(F)cc5[nH]4)c3)CC2)CC1`, 330 nM. On the same count and under the same terms, under `Fc1ccc2[nH]c(-c3cccc(N4CCC(NCc5cccnc5)CC4)c3)cc2c1` stands 340 nM. As to `CC(C)N1CCN(CCNC2CCN(c3cccc(-c4cc5ccccc5o4)c3)CC2)CC1`, the IC50 turned out to be 20000 nM. On the same count and under the same terms, as for `Cc1ccc(N2CCC(NC3CCN(C)CC3)CC2)cc1-c1cc2ccccc2[nH]1`, the figure is 350 nM.

For `CC(C)N1CCC(NC2CCN(c3cccc(-c4cc5cc(S(C)(=O)=O)ccc5[nH]4)c3)CC2)CC1`, the IC50 came out at 20000 nM.

In the case of `CC(C)N1CCN(CCNC2CCN(c3ccc4c(c3)-c3[nH]c5ccccc5c3CC4)CC2)CC1`, the IC50 was 370 nM.

`CC(C)N1CCN(CCNC2CCN(c3cccc(-c4cc5cc(S(F)(F)(F)(F)F)ccc5[nH]4)c3)CC2)CC1`: the IC50 was found to be 21000 nM. With `CC(C)N1CCN(CCCNC2CCN(c3cccc(-c4cc5ccccc5[nH]4)c3)CC2)CC1`, the IC50 was determined as 370 nM. `Cc1c(-c2cccc(N3CCC(NC4CCN(C)CC4)CC3)c2)[nH]c2ccccc12`: the IC50 came out at 22000 nM. The same measure, in the same setting: as for `CC(C)N1CCN(CCNC2CCN(c3ccc(F)c(-c4cc5ccccc5[nH]4)c3)CC2)CC1`, the figure is 410 nM; as for `Cc1ncncc1NC(=O)c1cccc(N2CCC(NCCN3CCN(C(C)C)CC3)CC2)c1`, 23000 nM. On the same count and under the same terms, under `N#Cc1ccc2[nH]c(-c3cccc(N4CCC(NCc5ccccc5)CC4)c3)cc2c1` stands 430 nM; under `Cc1ccc(N2CCC(NCCN3CCN(C(C)C)CC3)CC2)cc1-c1[nH]c2ccccc2c1C`, 23000 nM.

Take `CNC(=O)c1ccc2[nH]c(-c3cccc(N4CCC(NCCN5CCN(C(C)C)CC5)CC4)c3)cc2c1`: the IC50 came to 430 nM. On the same count and under the same terms, as for `CC(C)N1CCN(CCNC2CCN(c3cccc(-c4cc5ccccc5s4)c3)CC2)CC1`, the figure is 24000 nM; as for `CN1CCN(CC2(NC3CCN(c4cccc(-c5cc6ccccc6[nH]5)c4)CC3)CC2)CC1`, 440 nM; as for `CN1CCC(NC2CCN(c3cncc(-c4cc5ccccc5[nH]4)c3)CC2)CC1`, 25000 nM. Consider `CN(C)CCNC1CCN(c2cccc(-c3cc4cc(C#N)ccc4[nH]3)c2)CC1`, for which the IC50 is 460 nM. On the same count and under the same terms, as for `Cc1ccc(N2CCC(NC3CCN(C(C)C)CC3)CC2)cc1-c1cc2ccccc2[nH]1`, the figure is 500 nM. The same measure, in the same setting: as for `CC(C)N1CCN(CCNC2CCN(c3cccc(-c4cc5cc([N+](=O)[O-])ccc5[nH]4)c3)CC2)CC1` [drawing 222], the figure is 36 nM; as for `CC(C)N1CCC(NC2CCN(c3cccc(-c4cc5cc(C#N)ccc5[nH]4)c3)CC2)CC1` [drawing 226], 47 nM. The same measure, in the same setting: as for `CC(C)N1CCC(NC2CCN(c3cccc(-c4cc5cc(C#N)ccc5[nH]4)c3)CC2)CC1` [drawing 239], the figure is 4900 nM.

The assay is the same for the next values; noted with them: p97 ADP-Glo assay, differ from Table 2; read-out: ADP-Glo IC50.
`CC(C)N1CCN(CCNC2CCN(c3cccc(-c4cc5cc([N+](=O)[O-])ccc5[nH]4)c3)CC2)CC1` [Compound 23, N-(2-(4-Isopropylpiperazin-1-yl)ethyl)-1-(3-(5-nitro-1H-indol-2-yl)phenyl)piperidin-4-amine]: the IC50 is 40 ± 40 nM.

The same assay, now with this note: p97 ADP-Glo assay; read-out: inhibitor of the AAA ATPase (potency in words).
With `CC(C)N1CCN(CCNC2CCN(c3cccc(-c4cc5cc([N+](=O)[O-])ccc5[nH]4)c3)CC2)CC1` [Compound 23, N-(2-(4-Isopropylpiperazin-1-yl)ethyl)-1-(3-(5-nitro-1H-indol-2-yl)phenyl)piperidin-4-amine], the IC50 is 40 nM.
